# According to patent US4127687A, “Prevention of fouling of marine structures such as boat hulls” (Rohm and Haas Company, priority 1976, dated 1978):
# What was measured:
# [1] = Amount of toxicant remaining in the test container after membrane diffusion raft tests; format: physicochemical; parameters: key: 0: empty or trace; +: some; + +: ample; details: after completion of membrane diffusion raft tests
# Description: (§1) A known quantity of the test compound is placed into a cylindrical plastic container whose open end is then covered with a membrane of known porosity; the complete unit is attached to the appropriate raft panel so that the poison can freely diffuse into the free water layer around it. Regular inspections, recording time and quantity of settlement, allow a life history of each membrane trial to be constructed. Each raft panel contains 35 compounds to be evaluated together with 4 standard poisons and 1 non-toxic membrane for control.
# (§2) After the completion of membrane tests the contents of all containers are checked visually for poison loss. An empty container indicates an unacceptably high solubility for long term effectiveness; where the poison loss is low the compound is tested in one of two ways depending on its performance against fouling.
# ^b Amount of toxicants remaining in the test container after the
# completion of the membrane diffusion raft tests: 0 = empty or trace, + =
# weed [2] = assay: Membrane Diffusion Raft Trials, weed control; format: in vivo, grass-like algal growth common in sea water; details: membrane test, average 15 to 16 weeks of immersion
# Description: (§3) 1). FIELD TESTS: - Membrane Diffusion Raft Trials
# (§4) A specially constructed raft provides three types
# (§5) a). Waterline Well illuminated, aerated
# (§6) b). Flats Poorly illuminated deeper
# as §1
# (§7) The behavior on the raft can thus be compared with that of the standard poisons and the non-toxic control. At normal loading a membrane over the standard poisons would be free from macro-fouling after six months immersion. Compounds showing selective effects against restricted groups of fouling organisms also show up by membrane testing.
# as §2
# (§8) In the membrane tests, the results of approximately 140 compounds evaluated appear in Table 1. The symbols "0" means no detactable effect, the symbol "+" indicates the compound is active against the given fouling organism, and the symbol "++" means that the compound appears to be effective over at least about a four month period for essentially preventing fouling activity by the given organism. In the Table, "weed" designates a grass-like algal growth common in sea water.
# (§9) Membrane Test results are of an average 15 to 16 weeks of immersion,
# (§10) ^a 0 = none, + = some, + + = effective.
# Enteromorpha spores = assay: Laboratory toxicity test (Lab Bioassay) with Enteromorpha spores; format: in vivo; details: using Enteromorpha spores
# Description: Standard laboratory toxicity tests use Enteromorpha spores (zoospores or gametes) but Ectocarpus spores and barnacle nauplii may also be used. During the spore tests additional information on the control of bacterial and diatom slimes becomes available since these organisms are unavoidably introduced with the spore inoculum.
# More detailed laboratory toxicity tests on promising compounds determine LD50 values as percentage saturated solution.
# ^c Using Enteromorpha spores.
# barnacle = assay: Membrane Diffusion Raft Trials, barnacle control; format: in vivo, barnacles; details: membrane test, average 15 to 16 weeks of immersion
# Description: as §3, §4, §5, §6, §1, §7, §2, §8, §9, §10
# ^f The 1975 Spring settlement of barnacles was very meager and the […]
# [3] = Water solubility by UV spectrophotometric method; format: physicochemical; details: water, saturated solution; Table 1; read-out: Solubility by UV method
# Procedure: The water solubilities of several isothiazolones were determined by UV spectrophotometric measurements of saturated aqueous solution of each compound in comparison with measurement of solutions of carefully prepared known concentration as outlined in the following example.
# DETERMINATION OF SOLUBILITY OF 5-CHLORO-2-(4-FLUOROPHENYL)-4-METHYL-3-ISOTHIAZOLONE OF EXAMPLE 115
# A sample of 5-chloro-2-(4-fluorophenyl)-4-methyl-3-isothiazolone (0.0406 g., 1.67 × 10^-4 mole) was dissolved in 50 ml. of methanol. A 5 ml. aliquot of the solution was diluted to 1000 ml. with deionized water, providing a solution of 1.67 × 10^-5 moles/liter concentration. An ultraviolet spectrum of this solution was run using a 10 cm. cell. The absorbance (As) at the wave length of maximum absorption (279 nm.) was 1.208. The molar absorptivity, AM, was calculated from the relationship
# where b and c are path length or cell thickness and concentration respectively. Thus, AM was [formula]
# Another sample of the compound (0.3-0.5 g.) was stirred vigorously in 40 ml. of deionized water for approximately 72 hrs. to give a saturated solution. The mixture was filtered through very fine filter paper (Whatman No. 50) to remove all suspended solid. Small portions of the filtrate were diluted with water by various factors until an approximately mid-scale absorbance was obtained upon running an ultraviolet spectrum. Such an absorbance was obtained at a dilution of 10. The absorbance was 0.975 in a 10 cm. cell. Using the value for AM obtained earlier, in the equation
# weed [4] = assay: Paint panel / plaque tests against weed (Table 2); format: in vivo, grass-like algal growth common in sea water; parameters: key: high performance; medium performance; low performance; poor or unacceptable performance; details: April to November, 1975
# Description: (3) PAINT FORMULATION AND TEST PANEL OR PLAQUE TESTS
# In order to evaluate the compound under practical conditions, weighed quantities of promising compounds are ground in standard volumes of a selected range of paint media and brushed out on plaques for marine immersion.
# The anti-fouling paint formulations used is exemplified by the following: […]
# The most preferred specific compounds were utilized in paints including vinyl chloride-vinyl acetate copolymers, chlorinated rubber, acrylic emulsions, and conventional paints with or without rosin to contain 20% by weight of biocide in the wet film and in some cases (Example 144 and Example 145) with concentrations of 5, 10, and 15% based on the wet film. Each of the compounds is also described in the membrane tests noted above. The paints were applied at normal thicknesses to plaques or panels of 10 centimeters by 10 centimeters which were immersed in various positions as described for the raft noted above. The compounds and results, as against weed, in the season April to November, 1975, are as follows: […]
Compound,Contents at the end of test (amount of toxicants remaining in the test container) [1],Weed Control (weed [2]),Lab Bioassay LD50 (Enteromorpha spores),Barnacle Control (barnacle),solubility [3] [µg/mL],Effectiveness in paint CONV (conventional anti-fouling formulation) (weed [4]),Effectiveness in paint CR (chlorinated rubber) (weed [4]),Effectiveness in paint CR/R (chlorinated rubber/rosin) (weed [4]),Effectiveness in paint EM (acrylic emulsion) (weed [4]),Effectiveness in paint V (polyvinyl chloride-acetate) (weed [4]),Effectiveness in paint V/R (vinyl/rosin) (weed [4])
CCCCCCCCCCCCCCn1sccc1=O [Example 7],+ +,0,0.1 percentage saturated solution,0,–,–,–,–,–,–,–
O=c1ccsn1Cc1ccccc1 [Example 10],0,0,–,0,3000,–,–,–,–,–,–
O=c1ccsn1-c1ccc(Cl)cc1 [Example 12],+,+,–,+,180,–,–,–,–,–,–
CCCCCCn1sc(Cl)cc1=O [Example 15],0,0,–,0,900,–,–,–,–,–,–
CCCCCCCCCCCCCCCCCCn1sc(Cl)cc1=O [Example 26],+ +,0,1.0 percentage saturated solution,0,–,–,–,–,–,–,–
O=c1cc(Cl)sn1C1CCCCC1 [Example 27],+,0,–,+,217,–,–,–,–,–,–
O=c1cc(Cl)sn1CCc1ccccc1 [Example 29],0,+ +,–,0,240,–,–,–,–,–,–
O=c1cc(Cl)sn1-c1ccccc1 [Example 33],+,+ +,–,+,180,–,–,–,–,–,–
O=c1cc(Cl)sn1-c1ccc(Br)cc1 [Example 35],+ +,+ +,0.22 percentage saturated solution,0,–,–,–,–,–,–,–
O=c1cc(Cl)sn1-c1ccc(I)cc1 [Example 36],+ +,+ +,0.08 percentage saturated solution,0,–,–,–,–,–,–,–
CCCCCCCCn1scc(Br)c1=O [Example 48],+,0,–,0,45,–,–,–,–,–,–
CCCCCCCCCCCCn1sc(Cl)c(Cl)c1=O [Example 64],+ +,0,–,+,0.1 to 3,–,–,–,–,–,–
CCCCCCCCCCCCCCn1sc(Cl)c(Cl)c1=O [Example 65],+ +,0,–,0,0.9,–,–,–,–,–,–
CCCCCCCCCCCCCCCCn1sc(Cl)c(Cl)c1=O [Example 66],+ +,0,–,0,0.5,–,–,–,–,–,–
CCCCn1sc(Cl)c(Br)c1=O [Example 86],0,+ +,–,0,1170,–,–,–,–,–,–
CCCCCCn1sc(Cl)c(Br)c1=O [Example 87],0,+ +,–,+ +,85,–,–,–,–,–,–
CCCCCCCCn1sc(Br)c(Br)c1=O [Example 95],0,+ +,–,0,1.7,–,–,–,–,–,–
CCCCCCCCn1sc(Cl)c(C)c1=O [Example 101],0,+ +,–,+ +,38,–,–,–,–,–,–
Cc1c(Cl)sn(C2CCCCC2)c1=O [Example 107],+,0,–,+,350,–,–,–,–,–,–
Cc1c(Cl)sn(Cc2ccccc2)c1=O [Example 109],0,+ +,–,+,100,–,–,–,–,–,–
Cc1c(Cl)sn(Cc2ccc(Cl)cc2)c1=O [Example 110],+ +,+,–,+,34,–,–,–,–,–,–
Cc1c(Cl)sn(-c2ccccc2)c1=O [Example 111],+,+ +,–,+,200,–,–,–,–,–,–
CCCCc1ccc(-n2sc(Cl)c(C)c2=O)cc1 [Example 121],–,+ +,0.13 percentage saturated solution,+ +,–,–,–,–,–,–,–
Cc1c(Cl)sn(-c2ccc(Cl)c(Cl)c2)c1=O [Example 134],+ +,0,–,0,3.5,–,–,–,–,–,–
O=c1c(Cl)c(Cl)sn1CCc1ccccc1 [Example 146],–,–,–,–,–,h,h,h,p,h,h
Cc1c(Cl)sn(-c2ccc(Cl)cc2)c1=O [Example 147],–,–,–,–,–,p,h,h,m,h,h
O=c1c(Cl)c(Cl)sn1Cc1ccccc1 [Example 148],–,–,–,–,–,p,h,h,p,h,h
O=c1c(Cl)c(Cl)sn1Cc1ccc(Cl)cc1 [Example 149],–,–,–,–,–,h,–,h,h,l,h
O=c1c(Cl)c(Cl)sn1-c1ccccc1 [Example 150],–,–,–,–,–,p,p,h,p,m,h
